Results: article PMC6277198, “Molecular basis for activation of lecithin:cholesterol acyltransferase by a compound that increases HDL cholesterol” (eLife, 2018)
Positions count from the first letter of the chain named. “Also recorded” adds a separate entry of the source. Like-named read-outs stand apart in the source and are kept apart here.

Legend:
LCAT R244H = target: T1, LCAT R244H (Homo sapiens, UniProt P04180, R268H); assay: MUP hydrolysis (esterase) assay; assay type: biochemical
T1 construct: hydrolysis of 4-methylumbelliferyl palmitate (MUP) by full-length LCAT; made in house; host or cells: HEK293F (transient transfection, secreted)
T1 sequence (P04180 25-440 R268H): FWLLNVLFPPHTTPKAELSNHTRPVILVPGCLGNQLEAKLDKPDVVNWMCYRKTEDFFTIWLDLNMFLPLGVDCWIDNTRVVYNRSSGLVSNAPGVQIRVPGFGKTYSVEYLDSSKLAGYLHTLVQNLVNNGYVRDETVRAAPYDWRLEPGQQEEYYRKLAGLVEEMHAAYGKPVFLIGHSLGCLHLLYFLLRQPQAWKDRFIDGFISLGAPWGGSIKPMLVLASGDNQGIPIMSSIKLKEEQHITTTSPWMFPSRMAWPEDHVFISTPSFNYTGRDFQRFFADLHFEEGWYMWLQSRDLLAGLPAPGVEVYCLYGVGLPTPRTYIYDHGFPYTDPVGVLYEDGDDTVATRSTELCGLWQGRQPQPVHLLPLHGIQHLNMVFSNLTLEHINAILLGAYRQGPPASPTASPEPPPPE
Experimental: (§1) The lipase activity of LCAT was measured using MUP as a substrate. The assay was performed at room temperature in 0.1 M sodium phosphate buffer, pH 7.4 containing 0.01% Triton X-100. 4 μL of LCAT (6 nM final concentration) were dispensed into a 1536-well Greiner solid black plate. The same volume of assay buffer was dispensed into column 1 and 2 for a no-enzyme control. Then 23 nL DMSO or compounds titrated at 11-point 1:3 dilution series starting at 10 mM were transferred using a pintool. After 15 min incubation, 2 μL MUP (16 μM final concentration) was added to initiate the reaction. The hydrolysis of MUP was monitored using a ViewLux plate reader (excitation 380 nm/emission 450 nm) for 20 min. The fluorescence signal was normalized against no-activator and no-enzyme control after subtraction of background signal (t = 0 min). To plot percent activation, in each assay 100% was set at the rate of LCAT or LCAT variant without compound. The resulting data were fitted to a sigmoidal dose response curve.

LCAT R244A = target: T2, LCAT R244A (Homo sapiens, UniProt P04180, R268A); assay: MUP hydrolysis (esterase) assay; assay type: biochemical
T2 construct: hydrolysis of 4-methylumbelliferyl palmitate (MUP) by full-length LCAT; made in house; host or cells: HEK293F (transient transfection, secreted)
T2 sequence (P04180 25-440 R268A): T1 sequence (P04180 25-440 R268H) with H244A
Experimental: as §1

WT LCAT = target: T3, WT LCAT (Homo sapiens, UniProt P04180); assay: Differential scanning fluorimetry; assay type: binding; design: hydrolysis of 4-methylumbelliferyl palmitate (MUP) by full-length LCAT; made in house; host or cells: HEK293F (transient transfection, secreted); conditions: for Thermal stabilization (DSF): WT LCAT; for Thermal stabilization of WT LCAT (DSF): compound at 10 μM
T3 sequence (P04180 25-440): T1 sequence (P04180 25-440 R268H) with H244R
Experimental: Tm values were determined using an Applied Biosystems QuantStudio 7 Flex qPCR machine with two replicates performed at least in triplicate. LCAT at 0.05 mg mL^−1 was diluted into reaction buffer containing 5X Sypro Orange in a final volume of 10 μL in 384-well PCR plates. DMSO or compound 1 was added so that all reactions contained 3% DMSO. The reactions were run from 25–95 °C with a ramp rate of 0.03 °C s^−1. Tm values were determined as the derivative using Protein Thermal Shift software. Significance was determined using a one-way analysis of variance followed by Tukey’s multiple comparisons post-test in GraphPad Prism.

[1] = compound titrated from 0.04 to 9.5 μM
[2] = compound titrated from 0.04 to 9.5 μM, read-out: MUP assay EC50
[3] = read-out: EC50, MUP esterase assay

Row | Structure (SMILES) | Fold activation, MUP esterase assay (LCAT R244H; [1]) | EC50 (LCAT R244H; [2]) [nM] | EC50 (LCAT R244H; [3]) [nM] | Fold activation, MUP esterase assay (LCAT R244A; [1]) | EC50 (LCAT R244A; [2]) [nM] | EC50 (LCAT R244A; [3]) [nM] | Thermal stabilization (DSF) (WT LCAT) | Thermal stabilization of WT LCAT (DSF) (WT LCAT) | MUP assay EC50 (LCAT R244H; [1]) | MUP assay EC50 (LCAT R244A; [1])
1 | N#Cc1cnc(N2CCC(c3n[nH]c4c3C(O)(C(F)(F)F)CC(=O)N4)CC2)cc1C(F)(F)F (centres unmarked) [compound 1, 6-(4-(4-Hydroxy-6-oxo-4-(trifluoromethyl)−4,5,6,7-tetrahydro-1H-pyrazolo[3,4-b]pyridin-3-yl)piperidin-1-yl)−4-(trifluoromethyl)nicotinonitrile] | 1.6 ± 0.3 fold | 160 ± 30 | ~150 | 1.7 ± 0.4 fold | 130 ± 20 | ~150 | stabilize | – | – | –
2 | O=C1CC(O)(C(F)(F)F)c2c(C3CCN(c4cnc(C(F)(F)F)cn4)CC3)n[nH]c2N1 (centres unmarked) [compound 2, 4-Hydroxy-4-(trifluoromethyl)−3-(1-(5-(trifluoromethyl)pyrazin-2-yl)piperidin-4-yl)−4,5-dihydro-1H-pyrazolo[3,4-b]pyridin-6(7H)-one] | 1.8 ± 0.1 fold | 320 ± 30 | – | 1.9 ± 0.2 fold | 270 ± 40 | – | stabilize | – | – | –
3 | O=C1CC(O)(C(F)(F)F)c2c(C3CCN(c4cnc(C(F)(F)F)cn4)CC3)noc2N1 (centres unmarked) [compound 9, 4-hydroxy-4-(trifluoromethyl)−3-(1-(5-(trifluoromethyl)pyrazin-2-yl)piperidin-4-yl)−4,5-dihydroisoxazolo[5,4-b]pyridin-6(7H)-one] | 1.3 ± 0.06 fold | 7600 ± 1000 | – | 1.2 ± 0.1 fold | 6200 ± 800 | – | – | do not stabilize; also recorded: could not thermal stabilize | – | –
4 | O=C1CC(O)(C(F)(F)F)c2c(ncn2C2CCN(c3cnc(C(F)(F)F)cn3)CC2)N1 (centres unmarked) [compound 3, 7-Hydroxy-7-(trifluoromethyl)−1-(1-(5-(trifluoromethyl)pyrazin-2-yl)piperidin-4-yl)−6,7-dihydro-1H-imidazo[4,5-b]pyridin-5(4H)-one] | 1.8 ± 0.1 fold | 470 ± 50 | – | 1.9 ± 0.2 fold | 400 ± 30 | – | stabilize | – | – | –
5 | O=c1cc(C(F)(F)F)c2c(ncn2C2CCN(c3cnc(C(F)(F)F)cn3)CC2)[nH]1 [compound 8, 7-(trifluoromethyl)−1-(1-(5-(trifluoromethyl)pyrazin-2-yl)piperidin-4-yl)−1H-imidazo[4,5-b]pyridin-5(4H)-one] | 2.8 ± 0.6 fold | > 10000 | – | 3.2 ± 0.8 fold | > 10000 | – | – | do not stabilize; also recorded: could not thermal stabilize | – | –
6 | O=C1CC(O)(C(F)(F)F)c2c(ncn2C2CCNCC2)N1 (centres unmarked) [compound 6, 7-Hydroxy-1-(piperidin-4-yl)−7-(trifluoromethyl)−6,7-dihydro-1H-imidazo[4,5-b]pyridin-5(4H)-one] | no effect | – | – | no effect | – | – | – | do not stabilize; also recorded: could not thermal stabilize | no effect | no effect
